# Data reported in publication PMC7552967, “Anti-Melanoma Activities of Artemisone and Prenylated Amino-Artemisinins in Combination With Known Anticancer Drugs” (Frontiers in Pharmacology, 2020).
# Tested on: MCF-7 breast cancer cells
# Experiment: Sulforhodamine B (SRB) growth inhibition assay, MCF7
# Format: cell-based
# Settings: Homo sapiens, mean ± SD
# Excerpt: The human cell lines TK10 (human kidney adenocarcinoma), UACC62 (human melanoma) and MCF7 (human breast adenocarcinoma) were obtained from the National Cancer Institute (NCI) as part of a panel widely studied for drug screening and molecular target identification. Melanoma (A375) and human embryonic kidney (HEK293) were acquired from the American Type Culture Collection; ATCC® CRL-1619™ and ATCC® CRL-1573™ respectively. The nontumorigenic human immortalized keratinocyte (HaCaT) cells were a kind donation by the School of Anatomical Sciences, Faculty of Health Sciences, University of the Witwatersrand, South Africa. […]
# The growth inhibitory effects of the compounds were tested in the 3-cell line panel consisting of TK10 (renal), UACC62 (melanoma) and MCF7 (breast) cancer cells by Sulforhodamine B (SRB) assay. In addition, activity was also evaluated against HEK293 cells with the 3-(4,5-dimethylthiazol-2-yl)-2,5-diphenyl tetrazolium bromide (MTT) assay ([Mosmann, 1983]). […] The results were expressed as half maximal inhibitory concentrations (IC50) as described before ([Lewies et al., 2018]). […] After incubation, cell viability was determined using a microplate reader (BioTek®, Vermont, USA) at an excitation wavelength of 560 nm and emission wavelength of 630 nm with DMSO measured as a blank. […] Using the MTT assay data, IC50 values were calculated using GraphPad Prism 8. […]
row,SMILES,IC50 [µM]
1,"C[C@H]1[C@H](N2CCS(=O)(=O)CC2)O[C@@H]2O[C@@]3(C)CC[C@H]4[C@H](C)CC[C@@H]1[C@@]24OO3 [Artemisone 4, artemisone]",2.75 ± 0.79
2,"CC(C)=CCC/C(C)=C/CC/C(C)=C/CN1CCN([C@@H]2O[C@@H]3O[C@@]4(C)CC[C@H]5[C@H](C)CC[C@@H]([C@H]2C)[C@@]35OO4)CC1 [Farnesylpiperazine-DHA 7, farnesylpiperazine-DHA]",1.56 ± 0.51
